Assay results: patent US9108045B2, “Method and apparatus for optical inhibition of photodynamic therapy” (The General Hospital Corporation, priority 2007, dated 2015)

Key:
[1] = tested on: anterior ear skin of swine; assay type: in vivo
Description: Studies of ALA metabolism and porphyrin accumulation rates have been performed in anterior ear skin of swine. Such tissue bears many similarities to facial skin tissue in humans with respect to size and location of relevant tissue layers and target regions such as hair follicles and sebaceous glands. Topical 20% ALA in a water/alcohol solution was applied to the skin tissue, and formation of photosensitizers was analyzed based on quantitative fluorescence analysis of porphyrins formed from the ALA.
Overall porphyrin fluorescence was not observed until about 30-45 minutes after application of the ALA solution, although epidermis fluorescence measurement was statistically significant after only 15 minutes following the ALA application. Between about 30 and 120 minutes following application of the ALA solution, epidermis, hair follicles, and sebaceous glands became progressively more fluorescent. […] Fluorescence in all sites reached a maximum intensity between about 75 and 180 minutes after application of the ALA solution.

skin [2] = experiment: Clinical suppression of superficial porphyrin synthesis by inhibiting light during ALA metabolism; assay type: in vivo
Description: In further embodiments, superficial porphyrin accumulation resulting from topical application of ALA may be suppressed by blue light exposure during ALA metabolism. For example, a topical solution of 20% ALA can be applied to a region of skin. The region of skin can then be exposed to low level irradiance 410 nm blue light to inhibit accumulation of porphyrins. This light can be applied during the period of ALA metabolism, e.g., immediately after the application of the topical ALA solution or later in time. […] Here, clinical suppression refers to a diminished response of the tissue to treatment radiation in subsequent PDT procedures.

human skin = experiment: Example 1: suppression of epidermal porphyrin accumulation by blue light exposure during ALA metabolism; assay type: in vivo; conditions: 20% topical ALA, 410-nm blue light 1.47 mW/cm^2 during 2 hours incubation, then 632-nm light 100 J/cm^2
Description: Suppression of epidermal porphyrin accumulation by blue light exposure during ALA metabolism, in accordance with exemplary embodiments of the present invention, was tested in humans. With reference to FIG. 6, a 20% topical ALA solution was applied to human skin 610, covered with aluminum foil 620, while only some uncovered areas received 410-nm blue light (1.47 mW/cm^2) 630 during the incubation time. A fluorescent photo 640 was taken after 2 hours of incubation, and 632-nm light (100 J/cm^2) was then applied to all areas 650. A clinical photograph 660 was taken after PDT treatment.

skin [3] = experiment: Example 1: cooling and heating plates applied to skin after topical and injected ALA; porphyrin synthesis and skin photosensitization; assay type: in vivo
Description: When a skin surface is cooled, there can be a gradient of temperature such that ALA metabolism might favor the warm dermis. To examine this effect, cooling and heating plates were applied to skin after topical and injected ALA administration, and porphyrin synthesis and skin photosensitization were then determined.

skin of a pig = experiment: Example 2: blue light through attenuating films during ALA incubation; porphyrin accumulation by fluorescence; assay type: in vivo; conditions: 20% topical ALA, 410 nm blue light 2.6 mW/cm^2 for 3 hours through attenuating films, 100% to 17% transmittance (0.4 mW/cm^2)
Description: In accordance with embodiments of the present invention, 20% topical ALA was applied to the skin of a pig. Nine different areas were divided and different attenuating films were placed over the skin during the entire incubation time (or the metabolism period). The attenuating films reduced the light transmittance allowing a range of irradiance varying from 100%, 56%, 44%, 35%, 26%, 21%, 19% to 17% of light during the incubation period.
Immediately after the drug application, a 410 nm blue light was irradiated through all the experiment sites at an irradiance of 2.6 mW/cm^2 for 3 hours. During this period, porphyrin accumulation was measured in each test area by digital fluorescence photography (˜410 nm excitation, >600 nm emission), and microscopically determined by fluorescence microscopy of skin biopsies (8 mm diameter) obtained prior to light exposure. After the 3 hours of incubation, red light at 635 nm exposure with 200 J/cm^2 fluence was delivered at 100 mW/cm^2 irradiance, provided by an LED array source (Omnilux, PhotoTherapeutics LTD, Cheshire UK). Measurements and biopsies were repeated after 24 hours, prior to euthanasia.

[4] = tested on: moderate to severe inflammatory acne; assay type: in vivo, human; conditions: both sides of the face
Description: A 20% ALA solution (Dusa Pharmaceutics) was applied topically to the patient's face. The right side of the patient's face was covered with saran wrap and aluminum foil for 3 hours of incubation (to provide a conventional PDT treatment), while blue light at very low intensity (an inhibiting radiation) was applied to the left side of the patient's face for 3 hours (using a Clearlight at […], provided about 2 meters from the patient).
After the incubation period, both sides of the face were irradiated with red light treatment radiation (635 nm wavelength, at about 180 J/cm^2, using an Aktilite). During the red light irradiation, the patient indicated a subjective pain score of about 9-10 (on a 0-10 scale, with 0 being no pain, 5 being moderate pain, and 10 being maximum pain) on the right side of their face receiving conventional PDT treatment.

- time after application at which epidermis fluorescence measurement was statistically significant ([1]; swine): 15 min
- time after application at which fluorescence reached maximum intensity ([1]; swine, in vivo): 75 to 180 min
- time after application until overall porphyrin fluorescence was observed ([1]; swine, in vivo): 30 to 45 min
- time at which eccrine gland fluorescence was first detected ([1]; swine, in vivo): about 30 minutes
- time at which sebaceous glands started to show fluorescence ([1]; swine, in vivo): 45 to 75 min
SMILES: NCC(=O)CCC(=O)O [ALA, 5-aminolevulinic acid]
- fluorescence of hair follicles and sebaceous glands relative to other sites (trend) ([1]; in vivo): stronger fluorescence compared with epidermis and eccrine glands
- clinical suppression of superficial porphyrin synthesis (skin [2]; red light 633 nm, irradiance about 14-40 mW/cm^2): some clinical suppression
- clinical suppression of epidermal and/or superficial porphyrin synthesis (skin [2]; topical 20% ALA, blue light 415 nm, irradiance about 10-30 mW/cm^2 during ALA metabolism): almost complete clinical suppression
- suppression of photosensitizer formation (skin [2]; topical 20% ALA, blue light, irradiance about 60 μW/cm^2 to 3 mW/cm^2): Some suppression
- clinical suppression of photosensitizer formation (skin [2]; topical 20% ALA, blue light, irradiance less than about 30 μW/cm^2): No clinical suppression
- porphyrin accumulation and subsequent PDT reactions (human skin): suppressed
- conversion of epidermal ALA to porphyrins (skin [3]; skin cooling to less than about 20° C., topical and injected ALA): significantly suppress
- dermal porphyrin synthesis (skin [3]; skin surface temperature 20° C.): partially suppressed
- porphyrin accumulation under blue light (skin of a pig): inhibition of porphyrin accumulation in all sites down to 17% light transmittance
- acne outcome after four weeks [4]: no new inflammatory acne
